# Data reported in PubChem BioAssay (NCI).
# Where “and” joins values, the source holds several entries; their conditions need not be identical. Equal values may be shown once.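 1) Cells in 96-well plates. 2) Compound, 48 h, 5 concentrations. 3) Linear interpolation between surrounding doses. 4) Unreached endpoint = highest concentration. The concentration for 50% growth inhibition is given as GI50. At the TGI there is no net growth.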
# Assays:
# Assay in all cases: NCI-60 cell line screen, 48 h
# [1] = system: EKVX NSCLC
# [2] = system: CAKI-1 renal
# [3] = system: SK-OV-3 ovarian
# [4] = system: UACC-257 melanoma
# [5] = system: SK-MEL-2 melanoma
# [6] = system: HCT-15 colon
# [7] = system: LOX IMVI melanoma
# [8] = system: HCC-2998 colon
# [9] = system: SR leukemia
# [10] = system: MDA-MB-231 breast
SMILES,GI50 [1],TGI [1],GI50 [2],TGI [2],GI50 [3],TGI [3],GI50 [4],TGI [4],TGI [5],TGI [6],TGI [7],TGI [8],TGI [9],GI50 [6],GI50 [7],GI50 [8],GI50 [5],GI50 [9],TGI [10],GI50 [10]
CC(=O)C1CCC2C3CC=C4CC(SC(=N)N)CCC4(C)C3CCC12C (centres undefined),1.43 µM,6.88 µM,1.68 µM,4.24 µM,4.19 µM,18 µM,1.69 µM,3.34 µM,,,,,,,,,,,,
COc1cc2c(cc1OC)c1c(OC)c(OC)cc3c1c1c2sc(=S)n1CC3,,> 100 µM,,> 100 µM,,> 100 µM,,> 100 µM,> 100 µM,> 100 µM,> 100 µM,> 100 µM,,,,,,,,
CC1=C2[C@H](c3ccccc3)C3C=CC2(c2ccccc23)N(C(=O)C(c2ccccc2)c2ccccc2)C1=O (some centres undefined),,> 100 µM,,> 100 µM,,> 100 µM,,> 100 µM,,> 100 µM,> 100 µM,> 100 µM,> 100 µM,,,,,,,
CCCCCCCCCOC(=S)NCCCCC,,86.8 µM,,73.7 µM,,87.7 µM,,62.1 µM,,53.9 µM,29.4 µM,> 100 µM,50.6 µM,,,,,,,
COC(=O)C1=C(O)[C@H](C(=O)OC)[C@]2(O)[C@@H](C(=O)OC)[C@H]1C[C@@H](c1ccc(OC(=O)/C=C/c3ccco3)cc1)[C@@H]2C(=O)OC,21.9 µM,49.1 µM,27 µM,86.8 µM,,,65.5 µM,> 100 µM,,24 µM,3.17 µM,19.3 µM,,6.22 µM,1.59 µM,7 µM,,,,
CCC[CH2][Sn]([CH2]CCC)([O]C(=O)c1cc(F)cc(F)c1)[O][Sn]([CH2]CCC)([CH2]CCC)[O]C(=O)c1cc(F)cc(F)c1,1.31 µM,2.59 µM,0.663 µM,1.95 µM,3.04 µM,8.38 µM,1.11 µM,2.34 µM,2.2 µM,2.79 µM,2.35 µM,3.32 µM,4.32 µM,1.38 µM,1.05 µM,1.71 µM,1.02 µM,0.372 µM,,
COc1ccc(/C=C\c2cc(OC)c(OC)c(OC)c2)c(O)c1O,3.76 µM,70.1 µM and 96.1 µM,,,0.586 µM and 1.68 µM,15.1 µM and 48.3 µM,0.142 µM,28.7 µM and 52.3 µM,33.3 µM and 7.62 µM,> 57.5 µM and 8.27 µM,16.9 µM and 8.07 µM,2.47 µM and 3.06 µM,,0.0628 µM and 0.0643 µM,0.0512 µM,,0.0705 µM,,18.5 µM,
O=C(O)CCSC(=O)Nc1ccccc1Cl,,> 100 µM,,> 100 µM,,> 100 µM,,> 100 µM,,> 100 µM,> 100 µM,> 100 µM,> 100 µM,,,,,,,
CSc1ccc(C2=NN(C(C)=O)C(c3ccc(F)cc3)C2)cc1 (centres undefined),21.6 µM,64.7 µM,12.9 µM,42.2 µM,23 µM,67.7 µM,22.4 µM,45 µM,41.2 µM,> 100 µM,23.2 µM,49.8 µM,,19.9 µM,10.8 µM,20.4 µM,20.5 µM,,28.6 µM,10.7 µM
CCOC(=O)C1SC(=Nc2ccc(Cl)cc2C)N=C1C (centres undefined),,75.2 µM,,79.9 µM,,,,51.9 µM,35.8 µM,37.1 µM,28.2 µM,47.9 µM,,,,,,,,
COc1ccc(CNc2cnc3cc(N)cc(N)c3n2)cc1,14.4 µM,31.1 µM,28.9 µM,68.6 µM,82.1 µM,> 100 µM,21.4 µM,39.7 µM,76.3 µM,68.6 µM,32 µM,28 µM,,24.6 µM,17.4 µM,14.3 µM,23.9 µM,,29.6 µM,14.2 µM
COC(=O)C(=O)C(C(=O)C(=O)Nc1ccc(C)cc1)c1nc2ccc(C(=O)c3ccccc3)cc2[nH]c1=O (centres undefined),,> 100 µM,,> 100 µM,,> 100 µM,,> 100 µM,> 100 µM,> 100 µM,> 100 µM,> 100 µM,,,,,,,> 100 µM,
CC1=NN(C(=O)c2ccc(Cl)cc2)C(=O)/C1=C/c1ccco1,,> 100 µM,,> 100 µM,,> 100 µM,,> 100 µM,> 100 µM,> 100 µM,> 100 µM,> 100 µM,,,,,,,,
Cn1nc(-c2ccccc2)c(C(=O)/C=C/c2ccc(F)cc2)c(N2CCOCC2)c1=O,,75 µM,,,,> 100 µM,,,,> 100 µM,75.4 µM,,,,,,,,,
CCOC(=O)c1c2cccccc2n2c(=O)cc(C)nc12,,> 100 µM,,> 100 µM,,,,> 100 µM,> 100 µM,> 100 µM,> 100 µM,> 100 µM,> 100 µM,,,,,,,
O=C(c1ccccc1)c1c(CC(O)c2ccccc2)n(C(=O)c2ccccc2)c2ccccc12 (centres undefined),,,,> 100 µM,,,,> 100 µM,> 100 µM,> 100 µM,,> 100 µM,72.8 µM,,,,,,,
COC(=O)C(=O)C(C(=O)C=C(C)C)C(=O)C(=O)Nc1nc2ccc([N+](=O)[O-])cc2s1 (centres undefined),,> 100 µM,,94.7 µM,,> 100 µM,,> 100 µM,> 100 µM,> 100 µM,> 100 µM,> 100 µM,,,,,,,,
Cc1ccc(NC(=O)CC/C(CC(=O)C(C)(C)C)=N\Nc2ccc([N+](=O)[O-])cc2[N+](=O)[O-])cc1C,,> 100 µM,,,,> 100 µM,,> 100 µM,> 100 µM,> 100 µM,97.2 µM,,> 100 µM,,,,,,,
CC(=N)N(C)O,,> 100 µM,,,,> 100 µM,,> 100 µM,> 100 µM,42.9 µM,31.3 µM,> 100 µM,68.4 µM,,,,,,,
COc1ccc(NC(=O)CCc2cc(C(C)(C)C)n[nH]2)cc1,,> 100 µM,,> 100 µM,,> 100 µM,,> 100 µM,> 100 µM,> 100 µM,> 100 µM,> 100 µM,> 100 µM,,,,,,,
C/C(CCn1[nH]c(=O)ccc1=O)=N\Nc1ccc([N+](=O)[O-])cc1[N+](=O)[O-],,> 100 µM,,> 100 µM,,,,> 100 µM,> 100 µM,> 100 µM,> 100 µM,> 100 µM,> 100 µM,,,,,,,
C#CCN(N=O)C(=O)NCCCC(NC(C)=O)C(=O)NCc1ccccc1 (centres undefined),,> 100 µM,,> 100 µM,,> 100 µM,,> 100 µM,,> 100 µM,> 100 µM,> 100 µM,51 µM,,,,,,,

SMILES,GI50 [1],TGI [1],GI50 [2],TGI [2],GI50 [3],TGI [3],GI50 [4],TGI [4],TGI [5],TGI [6],TGI [7],TGI [8],TGI [9],GI50 [6],GI50 [7],GI50 [8],GI50 [5],GI50 [9],TGI [10],GI50 [10]
CCCCCCCCCCCCCC(=O)OCC1OC(n2cc(F)c(=O)[nH]c2=O)C(N)C(OC(=O)CCCCCCCCCCCCC)C1O (centres undefined),,> 100 µM,,> 100 µM,,> 100 µM,,> 100 µM,> 100 µM,> 100 µM,> 100 µM,> 100 µM,> 100 µM,,,,,,,
COC(=O)C(C(=O)C(=O)Nc1ccc(OC)cc1[N+](=O)[O-])c1nc2cc(C)c(C)cc2[nH]c1=O (centres undefined),,> 100 µM,,> 100 µM,,> 100 µM,,> 100 µM,,> 100 µM,> 100 µM,> 100 µM,> 100 µM,,,,,,,
CCOC(=O)NC(=O)c1cn(CCN2CCNCC2)c(=O)[nH]c1=O,,> 100 µM,,> 100 µM,,> 100 µM,,,> 100 µM,> 100 µM,> 100 µM,,> 100 µM,,,,,,,
NNC(=O)N/N=C1\C(=O)N(c2nccs2)C(=O)C(=O)C1c1nc2ccccc2s1 (centres undefined),,> 100 µM,,> 100 µM,,> 100 µM,,> 100 µM,> 100 µM,> 100 µM,> 100 µM,> 100 µM,,,,,,,,
COc1cc(CC(C(=O)O)C(=O)O)c(OC)cc1CC(C(=O)O)C(=O)O,,> 100 µM,,> 100 µM,,> 100 µM,,> 100 µM,,> 100 µM,> 100 µM,,> 100 µM,,,,,,,
Nc1ccc2c(c1)Oc1c(F)c(F)cc3c(=O)c(C(=O)O)cn-2c13,,> 100 µM,,> 100 µM,,> 100 µM,,,> 100 µM,> 100 µM,,> 100 µM,> 100 µM,,,,,,,
COc1ccc2c(c1)C(=O)c1c-2n(CCCN)c(=O)c2cc(OC)c(OC)cc12,1.83 µM,3.67 µM,0.0619 µM,0.467 µM,0.499 µM,10.7 µM,3.58 µM,19.3 µM,,1.18 µM,0.554 µM,0.294 µM,,0.229 µM,0.0529 µM,0.109 µM,2.55 µM,,1.86 µM,0.57 µM
O=C(O)CC1CC=C[C@H]2c3cc4c(cc3C(=O)NC12)OCO4 (some centres undefined),,> 75 µM,,,,> 75 µM,,> 75 µM,,> 75 µM,> 75 µM,> 75 µM,> 75 µM,,,,,,,
Cc1cc(C)nc(NS(=O)(=O)c2ccc(NC(=O)c3ccc(Cl)c4c(Nc5ccc(S(=O)(=O)N=C(N)N)cc5)c5ccccc5nc34)cc2)n1,,> 100 µM,,> 100 µM,,> 100 µM,,> 100 µM,,,44.4 µM,78.2 µM,,,,,,,,
COc1ccc(/C=c2/sc3n(c2=O)NC(c2ccc(Cl)cc2)NN=3)cc1 (centres undefined),,> 100 µM,,> 100 µM,,> 100 µM,,,> 100 µM,,> 100 µM,> 100 µM,> 100 µM,,,,,,,
CN(O)C(=S)c1ccccc1,,> 95.2 µM,,81.3 µM,,> 95.5 µM,,57.8 µM,> 33.1 µM,37.6 µM,7.76 µM,44 µM,,,,,,,> 24.9 µM,
CC(O)CN1c2ccccc2Sc2ccc(Cl)cc21 (centres undefined),,> 10 µM,,> 10 µM,,> 10 µM,,> 10 µM,> 10 µM,> 10 µM,> 10 µM,> 10 µM,,,,,,,> 10 µM,
CC(=O)O/N=C(Cl)/C(Cl)=N/OC(C)=O,,> 100 µM,,> 100 µM,,> 100 µM,,> 100 µM,> 100 µM,> 100 µM,> 100 µM,> 100 µM,> 100 µM,,,,,,,
Cc1ccc(/C=C(\C#N)c2ccccc2)cc1,,,,> 100 µM,,> 100 µM,,> 100 µM,> 100 µM,> 100 µM,> 100 µM,> 100 µM,> 100 µM,,,,,,,
Cc1nc(Nc2ccccc2)sc1C(=O)CC(=O)C(=O)NC12CC3CC(CC(C3)C1)C2,,73 µM,,> 100 µM,,> 100 µM,,> 100 µM,> 100 µM,> 100 µM,> 100 µM,> 100 µM,,,,,,,,
CN(C)CCNC(=O)c1cccc2ncc(-c3ccccc3)nc12,,34.3 µM,,> 68.6 µM,,82.6 µM,,31.3 µM,27.9 µM,25.2 µM,29.5 µM,23.4 µM,6.95 µM,,,,,,,
NNC(=S)Nc1cccc(Cl)c1,,> 100 µM,,> 100 µM,,> 100 µM,,> 100 µM,> 100 µM,> 100 µM,> 100 µM,> 100 µM,,,,,,,> 100 µM,
CN(C)CCC1(C2=CCCC2)CC/C(=C\c2ccccc2Cl)C1=O (centres undefined),,29.3 µM,,,,,,28.4 µM,27.6 µM,19.4 µM,,22.1 µM,,,,,,,,
OC1CCC[C@@H]1Sc1ccccc1 (some centres undefined),,> 100 µM,,> 100 µM,,> 100 µM,,> 100 µM,> 100 µM,> 100 µM,> 100 µM,> 100 µM,> 100 µM,,,,,,,
O=C(NN1C(=O)CSC12CCCC2)C(O)c1ccccc1 (centres undefined),> 100 µM,> 100 µM,> 100 µM,> 100 µM,> 100 µM,> 100 µM,> 100 µM,> 100 µM,> 100 µM,> 100 µM,> 100 µM,> 100 µM,,> 100 µM,> 100 µM,> 100 µM,> 100 µM,,> 100 µM,> 100 µM
COc1ccc(C[C@H](N)C(=O)N2C[C@@H](CO)C[C@@H](n3cnc4c(N(C)C)ncnc43)C2)cc1,,> 100 µM,,> 100 µM,,> 100 µM,,> 100 µM,> 100 µM,> 100 µM,> 100 µM,,> 100 µM,,,,,,,
